Where a name gives a salt, the structure may show the parent alone.
Key:
[1] = target: T1, human dopamine D1 receptor (Homo sapiens, UniProt P21728); experiment: [3H]-SCH-23390 binding to cloned human dopamine D1 receptors (CHO cell membranes); conditions: competitive binding, [3H]-SCH-23390, cloned human D1 in CHO membranes; read-out: D1 affinity Ki
T1 construct: A 1.4 Kb Hind III to Xho I fragment was subcloned into the vector pMMLV; expressed in transfected cells; host or cells: CHO cells, clone CHO-D1M#9 (plasmid pHD1MMLV), membranes
Procedure: [^3H]-SCH-23390 Binding to Cloned Human Dopamine D1 Receptors
Determination of relative binding affinity of potential neuropsychiatric and other agents for the human dopamine D1 receptor.
The human D, cDNA was obtained from the laboratory of Dr. Marc Caron in the vector pCMV5. A 1.4 Kb Hind III to Xho I fragment was subcloned into the vector pMMLV. The plasmid pHD1MMLV was then sequenced completely. Transient transfections in COS-7 cells were performed and D1 specific binding was obtained. The construct pHD1MMLV was then transfected stably into CHO cells and 72 G418-resistant clones were isolated. High expressors were identified by mRNA dot blot analysis. Six high expressors were further characterized by binding and then clone CHO-D1M#9 was chosen for detailed pharmacological characterization. This clone was then grown in suspension culture for the purpose of obtaining enough protein to accommodate several months of screening.
B. Cell Culture Conditions
• 1. […] Cells are transferred to suspension culture when at least […] are available (this allows for 300,000 cells/ml in a 50 ml spinner flask; this is the ideal suspension density). Cells are removed from flasks with trypsin, spun down at 1000×G and resuspended the pellet in fresh medium: • 50% CHO-SFM-II+50% Ham's F12 w/10% FBS (final FBS conc. 5%)+400 μg/ml G418+1% P/S. • 3. After the transfer to suspension culture, growth is monitored and cell viability is assessed using trypan blue exclusion. Total and viable cell count on 5 sectors of the hemocytometer are recorded. When the viable cell density reaches 600,000 cell/ml, the volume is doubled. • 4. After 1 week of growth in the 50/50 medium, the cells are spun down and transferred to a new spinner flask and replaced with 75% CHO-SFM II/25% Ham's F12+10% FBS plus the pen-strep and G418. Thereafter every 3 days, the medium is replaced with new medium containing a decreasing amount of FBS as follows:
• 5. The final maintenance culturing medium is made up as follows: • A stock mixture of 10 ml of pen-strep, 0.5 ml of […] (active; final concentration: 200 μg/ml) G418 and 1 ml of FBS are mixed and filtered and refrigerated. A volume (11.5 ml) of this mixture is added to a freshly opened 1 L bottle of CHO-SFM II. C. Membrane Preparation
Cells are harvested into 250 ml centrifuge tubes and spun down at 1200×G. The medium is removed and 100 ml PBS (phosphate-buffered saline) is added to each centrifuge tube; cells are resuspended and spun down again. The PBS is removed and the final pellet is homogenized with a polytron on ice at a medium setting.
The membrane suspension is diluted in water and samples (10, 50 and 100 μl; q.s. to 100 μl with water) are diluted with 100 μl of 1% SDS. The sample is vortexed and allowed to stand for 5 min. Two aliquots each of the solubilized protein sample are placed in clean 13×100 test tubes for the assay. Instructions are followed as outlined in the BioRad DC protein determination kit (Catalog # 500-0112). OD readings that fall between 0.1-0.5 (mid-range of standard curve) should typically be used for calculations. Protein concentrations are calculated from a standard curve using bovine serum albumin as standard by linear regression and interpolation.
Following cell harvesting and protein determination, the homogenate is diluted with 10% DMSO to the correct volume based on Bmax and relative size of individual experiments to be conducted. The concentrated protein is stored in cryogenic vials in aliquots of 1-1.5 ml. Samples may be stored in −80° C. freezer or in liquid nitrogen.

[2] = target: human dopamine D2Long (D2L) receptors (Homo sapiens, UniProt P14416)
human dopamine D2Long (D2L) receptors, sequence (P14416 whole entry): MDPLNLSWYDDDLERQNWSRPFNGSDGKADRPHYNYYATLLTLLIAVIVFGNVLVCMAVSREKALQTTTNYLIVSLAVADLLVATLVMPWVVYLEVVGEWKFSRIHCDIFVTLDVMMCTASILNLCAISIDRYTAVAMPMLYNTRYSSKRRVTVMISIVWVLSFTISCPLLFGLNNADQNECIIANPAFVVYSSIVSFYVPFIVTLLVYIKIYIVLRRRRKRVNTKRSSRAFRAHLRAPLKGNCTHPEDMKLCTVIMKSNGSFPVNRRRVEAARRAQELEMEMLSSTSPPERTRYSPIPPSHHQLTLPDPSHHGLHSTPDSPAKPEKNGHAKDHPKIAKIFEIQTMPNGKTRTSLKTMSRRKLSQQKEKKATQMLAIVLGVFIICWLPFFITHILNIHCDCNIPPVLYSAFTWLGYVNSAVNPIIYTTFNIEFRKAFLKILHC

T1 sequence (P21728 whole entry, the tested form may be a part): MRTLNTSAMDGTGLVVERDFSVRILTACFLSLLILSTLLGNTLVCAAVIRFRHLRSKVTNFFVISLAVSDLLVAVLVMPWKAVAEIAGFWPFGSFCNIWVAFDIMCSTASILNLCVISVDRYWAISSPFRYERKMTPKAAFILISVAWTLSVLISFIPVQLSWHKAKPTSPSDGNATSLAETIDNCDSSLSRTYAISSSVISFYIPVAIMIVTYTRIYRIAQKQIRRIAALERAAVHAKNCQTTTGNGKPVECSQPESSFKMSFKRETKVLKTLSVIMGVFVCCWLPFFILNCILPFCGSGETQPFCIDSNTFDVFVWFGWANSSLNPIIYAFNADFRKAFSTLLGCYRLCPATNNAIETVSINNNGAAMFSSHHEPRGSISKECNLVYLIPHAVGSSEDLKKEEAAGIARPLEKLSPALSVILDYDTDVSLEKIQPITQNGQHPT

SMILES | Ki [1] [nM] | Ki [2] [nM]
Cc1ccc2c(c1O)C[C@@H](C1CCN(S(=O)(=O)C[C@@]34CC[C@@H](CC3=O)C4(C)C)CC1)O[C@H]2CN [Example 162, 1(R)-[4-((1R,3S)-1-Aminomethyl-5-hydroxy-6-methyl-isochroman-3-yl)-piperidine-1-sulfonylmethyl]-7,7-dimethyl-bicyclo[2.2.1]heptan-2-one hydrochloride] | 382 | ≥ 100000
Cc1ccc(C(=O)NCCN2CCC([C@@H]3Cc4c(ccc(C)c4O)[C@H](CN)O3)CC2)cc1 [Example 190, N-{2-[4-((1R,3S)-1-Aminomethyl-5-hydroxy-6-methylisochroman-3-yl)-piperidin-1-yl]-ethyl}-4-methylbenzamide dihydrobromide] | 46 | 361
Cc1ccc2c(c1O)C[C@@H](C1CCN(CC(C)C)CC1)O[C@H]2CN [Example 40, (1R,3S)-1-Aminomethyl-3-(1-isobutyl-piperidin-4-yl)-6-methyl-isochroman-5-ol dihydrochloride] | 361 | ≥ 10000
Cc1ccc2c(c1O)C[C@@H](C1CCN(Cc3ccccc3C(F)(F)F)CC1)O[C@H]2CN [Example 72, (1R,3S)-1-Aminomethyl-6-methyl-3-[1-(2-trifluoromethyl-benzyl)-piperidin-4-yl]-isochroman-5-ol dihydrochloride] | 159 | 266
Cc1ccc2c(c1O)C[C@@H](C1CCN(S(=O)(=O)N3CCCCC3)CC1)O[C@H]2CN [Example 165, (1R,3S)-1-Aminomethyl-6-methyl-3-[1-(piperidine-1-sulfonyl)-piperidin-4-yl]-isochroman-5-ol hydrochloride] | 227 | ≥ 10000
CCCN(CCC)C[C@@H]1O[C@H](C2CCN(Cc3ccccc3)CC2)Cc2c1ccc(C)c2O [Example 188, (1R,3S)-3-(1-Benzyl-piperidin-4-yl)-1-dipropylaminomethyl-6-methyl-isochroman-5-ol dihydrochloride] | 586 | 140
C=CCN(CC=C)C[C@@H]1O[C@H](C2CCN(CC(=O)c3ccccc3)CC2)Cc2c1ccc(C)c2O [Example 180, 2-[4-((1R,3S)-1-Diallylaminomethyl-5-hydroxy-6-methyl-isochroman-3-yl)-piperidin-1-yl]-1-phenyl-ethanone] | 642 | 86
Cc1ccc2c(c1O)C[C@@H](C1CCN(Cc3cc(C(F)(F)F)ccc3F)CC1)O[C@H]2CN [Example 81, (1R,3S)-1-Aminomethyl-3-[1-(2-fluoro-5-trifluoromethyl-benzyl)-piperidin-4-yl]-6-methyl-isochroman-5-ol dihydrochloride] | 28.7 | 343
CCN(C)C[C@@H]1O[C@H](C2CCN(Cc3ccccc3)CC2)Cc2c1ccc(C)c2O [Example 173, (1R,3S)-3-(1-Benzyl-piperidin-4-yl)-1-[(ethyl-methyl-amino)-methyl]-6-methyl-isochroman-5-ol] | 425 | 241
Cc1ccc2c(c1O)C[C@@H](C1CCN(S(=O)(=O)C[C@]34CC[C@H](CC3=O)C4(C)C)CC1)O[C@H]2CN [Example 163, 1(S)-[4-((1R,3S)-1-Aminomethyl-5-hydroxy-6-methyl-isochroman-3-yl)-piperidine-1-sulfonylmethyl]-7,7-dimethyl-bicyclo[2.2.1]heptan-2-one hydrochloride] | 320 | ≥ 100000
Cc1ccc2c(c1O)C[C@@H](C1CCN(C(=O)N3CCCCC3)CC1)O[C@H]2CN [Example 138, [4-((1R,3S)-1-Aminomethyl-5-hydroxy-6-methyl-isochroman-3-yl)-piperidin-1-yl]-piperidin-1-yl-methanone hydrochloride] | 198 | ≥ 100000
CCCCS(=O)(=O)N1CCC([C@@H]2Cc3c(ccc(C)c3O)[C@H](CN)O2)CC1 [Example 154, (1R,3S)-1-Aminomethyl-3-[1-(butane-1-sulfonyl)-piperidin-4-yl]-6-methyl-isochroman-5-ol hydrochloride] | 270 | ≥ 100000
Cc1ccc2c(c1O)C[C@@H](C1CCN(S(=O)(=O)c3ccc(Cl)c(Cl)c3)CC1)O[C@H]2CN [Example 150, (1R,3S)-1-Aminomethyl-3-[1-(3,4-dichloro-benzenesulfonyl)-piperidin-4-yl]-6-methyl-isochroman-5-ol hydrochloride] | 256 | ≥ 100000
Cc1ccc2c(c1O)C[C@@H](C1CCN(S(=O)(=O)N3CCC(Cc4ccccc4)CC3)CC1)O[C@H]2CN [Example 166, (1R,3S)-1-Aminomethyl-3-[1-(4-benzyl-piperidine-1-sulfonyl)-piperidin-4-yl]-6-methyl-isochroman-5-ol hydrochloride] | 207 | 246
Cc1ccc2c(c1O)C[C@@H](C1CCN(Cc3cc(F)cc(C(F)(F)F)c3)CC1)O[C@H]2CN [Example 84, (1R,3S)-1-Aminomethyl-3-[1-(3-fluoro-5-trifluoromethyl-benzyl)-piperidin-4-yl]-6-methyl-isochroman-5-ol dihydrochloride] | 33 | 450
Cc1ccc2c(c1O)C[C@@H](C1CCN(S(=O)(=O)c3ccc(C(C)C)cc3)CC1)O[C@H]2CN [Example 145, (1R,3S)-1-Aminomethyl-3-[1-(4-isopropyl-benzenesulfonyl)-piperidin-4-yl]-6-methyl-isochroman-5-ol hydrochloride] | 146 | 288
Cc1ccc2c(c1O)C[C@@H](C1CCN(S(=O)(=O)c3ccccc3C(F)(F)F)CC1)O[C@H]2CN [Example 143, (1R,3S)-1-Aminomethyl-6-methyl-3-[1-(2-trifluoromethyl-benzenesulfonyl)-piperidin-4-yl]-isochroman-5-ol hydrochloride] | 167 | 777
CCN(CC)C(=O)N1CCC([C@@H]2Cc3c(ccc(C)c3O)[C@H](CN)O2)CC1 [Example 136, 4-((1R,3S)-1-Aminomethyl-5-hydroxy-6-methyl-isochroman-3-yl)-piperidine-1-carboxylic acid diethylamide hydrochloride] | 162 | ≥ 100000
Cc1ccc2c(c1O)C[C@@H](C1CCN(Cc3ccccc3)CC1)O[C@H]2CN(C)C [Example 169, (1R,3S)-3-(1-Benzyl-piperidin-4-yl)-1-dimethylaminomethyl-6-methyl-isochroman-5-ol] | 158 | 172
CCCCCCCCS(=O)(=O)N1CCC([C@@H]2Cc3c(ccc(C)c3O)[C@H](CN)O2)CC1 [Example 156, (1R,3S)-1-Aminomethyl-6-methyl-3-[1-(octane-1-sulfonyl)-piperidin-4-yl]-isochroman-5-ol hydrochloride] | 139 | ≥ 100000
Cc1ccc2c(c1O)C[C@@H](C1CCN(Cc3cccc(C(F)(F)F)c3Cl)CC1)O[C@H]2CN [Example 79, (1R,3S)-1-Aminomethyl-3-[1-(2-chloro-3-trifluoromethyl-benzyl)-piperidin-4-yl]-6-methyl-isochroman-5-ol dihydrochloride] | 81 | 310
Cc1ccc2c(c1O)C[C@@H](C1CCN(CC(C)(C)C)CC1)O[C@H]2CN [Example 42, (1R,3S)-1-Aminomethyl-3-[1-(2,2-dimethyl-propyl)-piperidin-4-yl]-6-methyl-isochroman-5-ol dihydrochloride] | 398 | ≥ 10000

Source: patent US7919508B2, “3-piperidinylisochroman-5-ols as dopamine agonists” (Aventis Pharmaceuticals Inc., priority 2004, dated 2011)
